Holding throughout (type): cell-based
In one test the test system is Botritis cinerea. The test is described as follows: Plate medium fungicidal assay, gray mold B.c (Experimental Example 5). The method, boiled down: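 Compounds in DMSO were incorporated into PDA plate medium at 50 mg/L and 5 mg/L, then inoculated with 4 mm mycelial plugs of Botrytis cinerea. Colony diameter versus untreated plates gave % mycelial growth inhibition, R=100(dc−dt)/dc, scored on a 5-grade scale.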

Test [1] relates to Pseudocercoporella herpotrichoides. Briefly: Plate medium fungicidal assay, wheat eye spot P.h (Experimental Example 5). In short, it runs like this: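 Compound in DMSO mixed into PDA agar for plates at 50 mg/L and 5 mg/L, inoculated with a 4 mm mycelial plug of Pseudocercosporella herpotrichoides. Colony diameter compared with untreated plates: % mycelial growth inhibition = 100(dc−dt)/dc, scored on a 5-grade scale.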

Another test relates to Fusarium oxysporum. The test is described as follows: Plate medium fungicidal assay, cucumber fusarium wilt F.c (Experimental Example 5). The note with it: for inhibition at 5 µg/mL / inhibition at 50 µg/mL: Fusarium oxysporum. In short, it runs like this: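 Compound in DMSO mixed into PDA agar to give plates at 50 mg/L and 5 mg/L, then inoculated with 4 mm mycelial plug. Colony diameter compared with untreated plate as % mycelial growth inhibition, R=100(dc−dt)/dc, then scored on a 5-grade scale.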

A further test deals with Phaeosphaeria nodorum. The test is described as follows: Plate medium fungicidal assay, wheat Septoria nodorum blotch P.n (Experimental Example 5). The note with it: for inhibition at 5 µg/mL / inhibition at 50 µg/mL: Parastagonospora nodorum. In short, it runs like this:
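Compound in DMSO mixed into PDA plate medium at 50 mg/L and 5 mg/L; 4 mm mycelial plug of pre-cultured fungus inoculated onto plate. Colony diameter compared with untreated plate, % mycelial growth inhibition = 100(dc−dt)/dc, scored in 5 grades.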

A further test deals with Rhynchosporium secalis. Briefly: Plate medium fungicidal assay, barley leaf blotch R.sec (Experimental Example 5). The note with it: for inhibition at 5 µg/mL / inhibition at 50 µg/mL: Rhynchosporium secalis. In short, it runs like this:
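Compound in DMSO mixed into PDA plate medium at 50 mg/L and 5 mg/L; 4 mm mycelial plug of the fungus inoculated. Colony diameter compared with untreated plates gives % mycelial growth inhibition R=100(dc−dt)/dc, scored on a 5-grade scale.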

Where [2] appears, read: plate medium containing compound at 5 mg/L, read-out: Growth inhibition grade, B.c.
The mark [3] stands for this setting: plate medium containing compound at 50 mg/L, read-out: Growth inhibition grade, B.c.
Setting [4] is: plate medium, 5 mg/L, read-out: growth inhibition grade B.c.
The mark [5] stands for this setting: plate medium, 50 mg/L, read-out: growth inhibition grade B.c.
Setting [6] is: plate medium containing compound at 5 mg/L, read-out: Growth inhibition grade, P.h.
[7] abbreviates: plate medium containing compound at 50 mg/L, read-out: Growth inhibition grade, P.h.
Where [8] appears, read: plate medium, 5 mg/L, read-out: growth inhibition grade P.h.
The mark [9] stands for this setting: plate medium, 50 mg/L, read-out: growth inhibition grade P.h.
[10] abbreviates: plate medium containing compound at 5 mg/L, read-out: Growth inhibition grade, F.c.
Setting [11] is: plate medium containing compound at 50 mg/L, read-out: Growth inhibition grade, F.c.
Where [12] appears, read: plate medium, 5 mg/L, read-out: growth inhibition grade F.c.
Setting [13] is: plate medium, 50 mg/L, read-out: growth inhibition grade F.c.
[14] abbreviates: plate medium containing compound at 5 mg/L, read-out: Growth inhibition grade, P.n.
[15] abbreviates: plate medium containing compound at 50 mg/L, read-out: Growth inhibition grade, P.n.
Where [16] appears, read: plate medium, 5 mg/L, read-out: growth inhibition grade P.n.
The mark [17] stands for this setting: plate medium, 50 mg/L, read-out: growth inhibition grade P.n.
Where [18] appears, read: plate medium containing compound at 5 mg/L, read-out: Growth inhibition grade, R.sec.
Where [19] appears, read: plate medium containing compound at 50 mg/L, read-out: Growth inhibition grade, R.sec.
Where [20] appears, read: plate medium, 5 mg/L, read-out: growth inhibition grade R.sec.
Setting [21] is: plate medium, 50 mg/L, read-out: growth inhibition grade R.sec.
Setting [22] is: plate medium containing compound at 5 mg/L.
Where [23] appears, read: plate medium containing compound at 50 mg/L.

Where two headings read alike, the source gives them in different places.

For the compound `C[C@]1(CCl)CC[C@@H](Cc2ccc(F)cc2)[C@]1(O)Cn1cncn1` (racemic) [Compound I-77, (1RS,2SR,5SR)-2-chloromethyl-5-(4-fluorobenzyl)-2-methyl-1-(1H-1,2,4-triazol-1-ylmethyl)cyclopentanol], the inhibition at 5 µg/mL (with Botritis cinerea (setting [2]); with Botritis cinerea (setting [4]); in test [1] (setting [6]); in test [1] (setting [8]); in the test with Fusarium oxysporum (setting [10]); with Fusarium oxysporum (setting [12])) was more than 80% each time. Besides, the inhibition at 5 µg/mL in the test with Phaeosphaeria nodorum (setting [14]), in the test on Phaeosphaeria nodorum (setting [16]), with Rhynchosporium secalis (setting [18]) and with Rhynchosporium secalis (setting [20]) was more than 80% each time. Further, the inhibition at 50 µg/mL (with Botritis cinerea (setting [3]); in the test with Botritis cinerea (setting [5]); in test [1] (setting [7]); in test [1] (setting [9]); in the test on Fusarium oxysporum (setting [11]); in the test on Fusarium oxysporum (setting [13])) was more than 80% throughout. The inhibition at 50 µg/mL in the test on Phaeosphaeria nodorum (setting [15]), in the test on Phaeosphaeria nodorum (setting [17]), in the test on Rhynchosporium secalis (setting [19]) and in the test with Rhynchosporium secalis (setting [21]) was more than 80% throughout.

Turning to `C[C@]1(CCl)CC[C@H](Cc2ccc(Cl)cc2)[C@]1(O)Cn1cncn1` (racemic) [Compound I-301, (1RS,2SR,5RS)-5-(4-chlorobenzyl)-2-chloromethyl-2-methyl-1-[1,2,4]triazol-1-ylmethylcyclopentanol], the inhibition at 5 µg/mL (in the test on Botritis cinerea (setting [4]); in test [1] (setting [8]); with Fusarium oxysporum (setting [12]); in the test on Phaeosphaeria nodorum (setting [16]); with Rhynchosporium secalis (setting [20])) was more than 80% in each case. The inhibition at 50 µg/mL (in the test on Botritis cinerea (setting [5]); in test [1] (setting [9]); in the test on Fusarium oxysporum (setting [13]); with Phaeosphaeria nodorum (setting [17]); in the test with Rhynchosporium secalis (setting [21])) was more than 80% in each case.

On to `C[C@]1(CCl)CC[C@@H](Cc2ccc(Cl)cc2)[C@]1(O)Cn1cncn1` (racemic) [Compound I-1, (1RS,2SR,5SR)-5-(4-chlorobenzyl)-2-chloromethyl-2-methyl-1-(1H-1,2,4-triazol-1-ylmethyl)cyclopentanol], for which the inhibition at 5 µg/mL (with Botritis cinerea (setting [2]); in the test with Botritis cinerea (setting [4]); in test [1] (setting [6]); in test [1] (setting [8]); with Fusarium oxysporum (setting [10]); in the test with Fusarium oxysporum (setting [12])) was more than 80% in each case. Further, the inhibition at 5 µg/mL in the test on Phaeosphaeria nodorum (setting [14]), in the test on Phaeosphaeria nodorum (setting [16]), in the test on Rhynchosporium secalis (setting [18]) and in the test on Rhynchosporium secalis (setting [20]) was more than 80% throughout. Further, the inhibition at 50 µg/mL (with Botritis cinerea (setting [3]); in the test on Botritis cinerea (setting [5]); in test [1] (setting [7]); in test [1] (setting [9]); in the test with Fusarium oxysporum (setting [11]); in the test on Fusarium oxysporum (setting [13])) was more than 80% each time. In addition, the inhibition at 50 µg/mL with Phaeosphaeria nodorum (setting [15]), in the test on Phaeosphaeria nodorum (setting [17]), in the test with Rhynchosporium secalis (setting [19]) and in the test on Rhynchosporium secalis (setting [21]) was more than 80% in each case.

On to `CC(Cl)=C[C@]1(C)CC[C@@H](Cc2ccc(Cl)cc2)[C@]1(O)Cn1cncn1` (racemic) [Compound I-115, (1RS,2SR,5SR)-5-(4-chlorobenzyl)-2-(2-chloropropenyl)-2-methyl-1-(1H-1,2,4-triazol-1-ylmethyl)cyclopentanol], for which the inhibition at 5 µg/mL was more than 80% in the test with Botritis cinerea (setting [4]); more than 80% in test [1] (setting [8]); more than 80% with Fusarium oxysporum (setting [12]); 60 to 80% in the test with Phaeosphaeria nodorum (setting [16]); more than 80% in the test with Rhynchosporium secalis (setting [20]). For the same compound, the inhibition at 50 µg/mL (in the test on Botritis cinerea (setting [5]); in test [1] (setting [9]); with Fusarium oxysporum (setting [13]); in the test with Phaeosphaeria nodorum (setting [17]); with Rhynchosporium secalis (setting [21])) was more than 80% in each case.

In the case of `C[C@]1(CBr)CC[C@@H](Cc2ccccc2)[C@]1(O)Cn1cncn1` (racemic) [Compound I-602, (1RS,2SR,5SR)-2-bromomethyl-5-benzyl-2-methyl-1-(1H-1,2,4-triazol-1-ylmethyl)cyclopentanol], the inhibition at 5 µg/mL in the test on Botritis cinerea (setting [4]) is 60 to 80%; in test [1] (setting [8]), 40 to 60%; with Fusarium oxysporum (setting [12]), more than 80%; with Phaeosphaeria nodorum (setting [16]) it was 40 to 60%; in the test on Rhynchosporium secalis (setting [20]), more than 80%. Moreover, the inhibition at 50 µg/mL (in the test with Botritis cinerea (setting [5]); in test [1] (setting [9]); in the test on Fusarium oxysporum (setting [13]); with Phaeosphaeria nodorum (setting [17]); in the test on Rhynchosporium secalis (setting [21])) was more than 80% throughout.

With `O[C@]1(Cn2cncn2)[C@@H](Cc2ccc(Cl)cc2)CC[C@@H]1C(F)(F)F` (racemic) [Compound I-365, (1RS,2SR,5RS)-5-(4-chlorobenzyl)-2-trifluoromethyl-1-(1H-1,2,4-triazol-1-ylmethyl)cyclopentanol], the inhibition at 5 µg/mL in the test on Botritis cinerea (setting [4]) is less than 20%; in test [1] (setting [8]) it was 20 to 40%; with Fusarium oxysporum (setting [12]) it was 20 to 40%; with Phaeosphaeria nodorum (setting [16]) it was 40 to 60%; in the test on Rhynchosporium secalis (setting [20]) it was 20 to 40%. For the same compound, the inhibition at 50 µg/mL (in the test on Botritis cinerea (setting [5]); in test [1] (setting [9]); with Fusarium oxysporum (setting [13]); in the test on Phaeosphaeria nodorum (setting [17]); in the test on Rhynchosporium secalis (setting [21])) was more than 80% throughout.

For the compound `C[C@]1(CCl)CC[C@@H](Cc2ccccc2)[C@]1(O)Cn1cncn1` (racemic) [Compound I-73, (1RS,2SR,5SR)-2-chloromethyl-5-benzyl-2-methyl-1-(1H-1,2,4-triazol-1-ylmethyl)cyclopentanol], the inhibition at 5 µg/mL (with Botritis cinerea (setting [2]); in the test with Botritis cinerea (setting [4]); in test [1] (setting [6]); in test [1] (setting [8]); with Fusarium oxysporum (setting [10]); in the test on Fusarium oxysporum (setting [12])) was more than 80% throughout. Besides, the inhibition at 5 µg/mL in the test on Phaeosphaeria nodorum (setting [14]), in the test on Phaeosphaeria nodorum (setting [16]), in the test with Rhynchosporium secalis (setting [18]) and in the test on Rhynchosporium secalis (setting [20]) was more than 80% in each case. For the same compound, the inhibition at 50 µg/mL (in the test with Botritis cinerea (setting [3]); in the test with Botritis cinerea (setting [5]); in test [1] (setting [7]); in test [1] (setting [9]); in the test with Fusarium oxysporum (setting [11]); in the test on Fusarium oxysporum (setting [13])) was more than 80% throughout. Moreover, the inhibition at 50 µg/mL in the test with Phaeosphaeria nodorum (setting [15]), in the test on Phaeosphaeria nodorum (setting [17]), in the test with Rhynchosporium secalis (setting [19]) and in the test with Rhynchosporium secalis (setting [21]) was more than 80% each time.

With `C[C@]1(CCl)CC[C@@H](Cc2ccc(-c3ccccc3)cc2)[C@]1(O)Cn1cncn1` (relative stereo) [Compound I-82], the “Growth inhibition grade, B.c” value with Botritis cinerea (setting [22]) and in the test with Botritis cinerea (setting [23]) was 5 (% Mycerial growth inhibition of 80% or higher) in each case. Further, the “Growth inhibition grade, P.h” value in test [1] (setting [22]) and in test [1] (setting [23]) was 5 (% Mycerial growth inhibition of 80% or higher) each time. Also, the “Growth inhibition grade, F.c” value with Fusarium oxysporum (setting [22]) and with Fusarium oxysporum (setting [23]) was 5 (% Mycerial growth inhibition of 80% or higher) each time. Besides, the “Growth inhibition grade, P.n” value in the test on Phaeosphaeria nodorum (setting [22]) and with Phaeosphaeria nodorum (setting [23]) was 5 (% Mycerial growth inhibition of 80% or higher) in each case. Further, the “Growth inhibition grade, R.sec” value with Rhynchosporium secalis (setting [22]) and in the test on Rhynchosporium secalis (setting [23]) was 5 (% Mycerial growth inhibition of 80% or higher) throughout.

`C[C@]1(CBr)CC[C@@H](Cc2ccc(F)cc2)[C@]1(O)Cn1cncn1` (racemic) [Compound I-601, (1RS,2SR,5SR)-2-bromomethyl-5-(4-fluorobenzyl)-2-methyl-1-(1H-1,2,4-triazol-1-ylmethyl)cyclopentanol]: the inhibition at 5 µg/mL in the test on Botritis cinerea (setting [4]) is 60 to 80%; in test [1] (setting [8]), 60 to 80%; in the test on Fusarium oxysporum (setting [12]), more than 80%; with Phaeosphaeria nodorum (setting [16]), 60 to 80%; in the test on Rhynchosporium secalis (setting [20]), more than 80%. The inhibition at 50 µg/mL (in the test on Botritis cinerea (setting [5]); in test [1] (setting [9]); in the test on Fusarium oxysporum (setting [13]); in the test with Phaeosphaeria nodorum (setting [17]); with Rhynchosporium secalis (setting [21])) was more than 80% throughout.

As usually defined, the inhibition is the share of the control response that was lost under treatment.

For the origin of these results see patent US9145351B2, “Azole derivatives, methods for producing the same, intermediate thereof, agro-horticultural agents” (KUREHA CORPORATION, priority 2009, dated 2015).
